Values quoted from earlier work in patent US20070293698A1, “Compositions of Allosteric Hemoglobin Modifiers and Methods of Making the Same” (ALLOS THERAPEUTICS, INC., priority 2004, published 2007).

Experiments:
hemoglobin = hemoglobin (Homo sapiens, UniProt P68871+P69905); conditions: in vivo
Lewis lung carcinoma = conditions: mice bearing the Lewis lung carcinoma; Teicher 1996
mouse fibrosarcoma tumor = conditions: combination of efaproxiral and radiation relative to radiation alone; Teicher 1996, Khandelwal 1996
[1] = system: EMT6 mouse mammary tumors; conditions: efaproxiral plus oxygen breathing, Rockwell and Kelley 1998

Chain of hemoglobin (P69905 2-142 limits assumed): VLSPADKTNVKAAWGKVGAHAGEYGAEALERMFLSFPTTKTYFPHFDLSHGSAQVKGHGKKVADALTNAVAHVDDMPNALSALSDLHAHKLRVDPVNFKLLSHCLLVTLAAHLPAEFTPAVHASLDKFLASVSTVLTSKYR
Chain of hemoglobin (P68871 2-147 limits assumed): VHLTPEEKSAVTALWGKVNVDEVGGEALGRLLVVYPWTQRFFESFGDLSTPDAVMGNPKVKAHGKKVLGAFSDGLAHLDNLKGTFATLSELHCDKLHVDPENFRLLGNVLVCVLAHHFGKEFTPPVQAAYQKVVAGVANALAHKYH

Cc1cc(C)cc(NC(=O)Cc2ccc(OC(C)(C)C(=O)O)cc2)c1 [efaproxiral, 2-[4-((((3,5-dimethylphenyl)amino)carbonyl)methyl)phenoxy]-2-methyl propionic acid]
tissue oxygenation (hemoglobin): enhance tissue oxygenation in vivo
effect on fractionated radiation therapy (Lewis lung carcinoma): enhance fractionated radiation therapy
tumor growth (mouse fibrosarcoma tumor): tumor growth has been shown to be reduced
effect of radiation in tumors ([1]; EMT6 tumors): Enhancement of the effect of radiation was observed
radiation effects in normal tissues ([1]; normal tissues): absence of enhanced radiation effects in normal tissues
